US5962516A, “Immunosuppressive compounds and methods” (priority 1999, dated 1999)
In brackets after ≈: the same amount, converted by molar mass. Entries after “also recorded” stand apart in the source; their conditions may differ. Where a name gives a salt, the structure may show the parent alone.

Assays:
[1] = Cytotoxicity by MTT reduction reported with the MLR assay (Table II); assay type: cell-based; details: cytotoxic when toxicity greater than 25%
Experimental: Potential cytotoxicity of the test samples was assessed by the measurement of their effect on the reduction of MTT (3-[4,5-Dimethylthiazole-2-yl]-2,5-diphenyltetrazolium bromide) by cultured cells. MTT, a yellow-colored compound, is reduced by mitochondrial enzymes to form the purple crystalline reduction product formazane, providing an index of cellular respiration on viable cells as well as a sensitive assay for cytotoxicity (Mossmann, 1983).
The cytotoxicity was assessed in cultured human PBMC and mouse thymocytes. A stock solution of MTT (Sigma) at 5 mg/ml in phosphate buffered saline, pH 7.4, was prepared and stored in the dark at 4° C. PBMCs or thymocytes were cultured with various concentrations of test samples in flatbottom 96-well tissue culture plates (Costar) under the same conditions as those described above, but the stimulants (X-35 or IL-1+PHA) were replaced by appropriate medium. Untreated cells with medium alone and without the test samples were used as controls. After incubation for 21 hours, 25 μl of MTT solution was added to each well. After an additional three hours of incubation, the experiment was terminated by addition of a solution of 10% sodium dodecyl sulfate in 0.01 N HCl. Following overnight incubation at 37° C. to solubilize the formazane crystals, optical density was determined at 570-650 nm in microplate reader. […]

male fertility [2] = experiment: Effect on fertility in male mice; assay type: in vivo, mouse (BDF1)
Experimental: The compounds of the invention are also effective in reducing or inhibiting male fertility, wherein administration of a compound of the invention to a male mammal is effective to reduce the potency of the male's semen, thereby reducing or blocking fertilization. Triptolide succinate (YM-262) was tested for inhibition of fertility in male BDF1 mice, according to protocols described in Example 15. The compound was administered intraperitoneally (IP) in a saline solution, using a cycle of daily administration for 5 days followed by a two day cessation of treatment. Dose levels were 0.04 or 0.13 mg/kg/day. The cycle was repeated for 5 weeks before evaluation of physiological effects (testis weight) and reproductive performance.
The effect of the compound on fertility was tested with groups of five male mice treated according to the same schedule. Each male was housed with two females starting on day 32, after termination of YM-262 treatment.
Triptolide succinate (YM-262) was tested for fertility control in male BDF1 mice, using a cycle of daily administration for 5 days followed by a two day cessation of treatment. The cycle was repeated for 5 weeks, with dosing on days 0-4, 7-11, 14-18, 21-25 and 28-32 before evaluation of physiological effects and reproductive performance.
A dosing solution of YM-262 was prepared once a week from a stock solution in saline at 1.0 mg/ml and stored at 4° C. […]

male fertility [3] = experiment: Effect on fertility in male mice; assay type: in vivo, mouse (BDF1); details: for delay of time from cohabitation to birth / increase in time from cohabitation to birth: vs control
[4] = Stability in water (D2O) by 1H NMR; assay type: physicochemical; details: room temperature, Succinate Sodium Salt
Experimental: Sodium triptolide succinate, designated YM-274, was dissolved in D2 O, and the aqueous solution was stored at room temperature.
A solution of sodium triptolide succinate (YM-274) in D2 O was prepared at a concentration of 3 mg/ml and stored at room temperature. The solution was analyzed by ^1 H NMR at intervals of 1, 3, 5, 15, 45, 90, 180 minutes; 1, 7, 14 days; and 1, 2, 3, and 5 months.

[5] = 0.03 mg/kg/day (so in the source) i.p.
[6] = 0.1 mg/kg/day (so in the source) i.p.

## CC(C)[C@]12O[C@H]1[C@@H]1O[C@]13[C@]1(O[C@H]1C[C@H]1C4=C(CC[C@@]13C)C(=O)OC4)[C@@H]2O [Triptolide, triptolide, reference compound]
[1]
  CC50 at 24 h: 0.0133 mg/L (≈ 0.0369 µM)

## CC(C)C12OC1C1OC13C1(C)CCC4=C(COC4=O)C1CC1OC13C2OC(=O)CCC(=O)O (stereo not drawn) [YM-262, Triptolide Succinate]
Male fertility [2]; 0.13 mg/kg/day i.p. over 32 days
  delay of recovery of fertility after termination of therapy: 21 days
Male fertility [2]; after cessation of administration
  reversibility of antifertility effect: the antifertility effect was reversible; also recorded: the control of fertility was reversible
Male fertility [3]; [5]
  time from beginning of cohabitation to birth of litters: 28 days
  delay of time from cohabitation to birth: 17%
Male fertility [3]; 0.04 mg/kg/day i.p.
  period of unproductive mating: approximately four-day period of unproductive mating
  time from beginning of cohabitation to birth of litters: 28 days
  delay of time from cohabitation to birth: 17%
Male fertility [3]; [6]
  time from cohabitation to birth: 45 days
  increase in time from cohabitation to birth: 88%
Male fertility [3]; 0.1 mg/kg/day (so in the source) i.p. over 32 days
  delay of recovery of fertility after termination of therapy: 21 days
Male fertility [3]; 0.13 mg/kg/day i.p.
  time from cohabitation to birth: 45 days
  increase in time from cohabitation to birth: 88%

## CC(C)C12OC1C1OC13C1(C)CCC4=C(COC4=O)C1CC1OC13C2OC(=O)CCC(=O)O (stereo not drawn) [YM-274, Triptolide Succinate Sodium Salt]
[4]; 3 months
  stability in aqueous solution, three months: no appreciable change in the NMR spectrum; also recorded: unchanged after three months in solution
[4]; 5 months
  stability in aqueous solution, five months: Some decomposition was apparent; also recorded: some decomposition was observed
